One data set has as its system keratinocytes. The data set is described as follows: Adhesion of keratinocytes to pre-treated 96 wells micro-plates (MTT, OD 560 nm against 630 nm). The class given is cell-based. Particulars: Condition C: wells pre-treated 12 hours at 50 ppm; 3 hours contact with keratinocytes. The procedure: The study is carried out in 96 wells micro-plates on keratinocytes cultured in an incubator at 37° C. and 5% of CO2.
The wells of these plates are pre-treated, for 12 hours, in different ways; four conditions have been realized:
Condition A: negative control, not containing peptide;
Condition B: incubated with various peptides, made up from 3 to 25 amino acids, with a concentration of 35 ppm;
Condition C: incubated with fibronectin with a concentration of 50 ppm;
Condition D: incubated with the peptide of sequence Lys-Leu-Asp-Ala-Pro-Thr to a concentration of 5 ppm.
After 3 hours of contact with the keratinocytes, the wells are completely filled with medium, hermetically closed, turned over and agitated on a three-dimensional agitator during 20 minutes. Then the plates are emptied and the remaining medium is aspired. Then, 100 μl of MTT with 1 mg/ml are added by wells and are left for 3 hours at 37° C. and 5% CO2. The solution is finally withdrawn, then 100 μl of DMSO is added. A reading of the OD is made at 560 nm against 630 nm.
The OD is proportional to the quantity of viable cells, i.e. which adhered to the micro-plates.

Data set [1] in a line: Stability of the peptide by HPLC at various temperatures. As to conditions: 10^-4 M; after 8 days at 25° C. The format is physicochemical. How it is done:
The Peptide Lys-Leu-Asp-Ala-Pro-Thr was analyzed with a concentration of 10^-4 M by HPLC on a column of the C18 type, and with a linear gradient water/TFA 0.1%-acetonitril/TFA 0.1%.

Data set [2] in a line: Stability of the peptide in culture medium conditioned by human fibroblasts and keratinocytes (released degradation enzymes), HPLC. Particulars: medium from human fibroblasts and keratinocytes cultivated 24 hours at 37° C.; after 24 hours with peptide. The format is in vitro ADME. The procedure:
Human fibroblasts and keratinocytes were cultivated during 24 hours at 37° C. and 5% of CO2. For this period, the cells will release many degradation enzymes in the culture medium. Thereafter, the culture medium is removed to be put in the presence of the peptide.

Data set [3] concerns fibroblasts and keratinocytes in culture. Nature of the data set: Peptide applied to fibroblasts and keratinocytes in culture, HPLC analysis of the culture medium. Particulars: in a few hours. The format is in vitro ADME, human. The procedure:
A test is carried out by applying the peptide to the fibroblasts and to the keratinocytes in culture.
This assumption is then consolidated by the tests of effectiveness exposed in the following examples.

Consider two compounds from patent US20040141939A1, “Cosmetic or dermatological use of peptides for promoting adhesion between skin cells” (priority 2001, published 2004).

Peptide text beside a SMILES is read from it.

Take fibronectin: in the data set on keratinocytes, the “O.D. (adhered viable cells)” value amounted to 0.770.
For the compound `CC(C)C[C@H](NC(=O)[C@@H](N)CCCCN)C(=O)N[C@@H](CC(=O)O)C(=O)N[C@@H](C)C(=O)N1CCC[C@H]1C(=O)N[C@H](C(=O)O)[C@@H](C)O` [Lys-Leu-Asp-Ala-Pro-Thr] (H-KLDAPT-OH; N-terminus and C-terminus assumed), in data set [1], the “peptide degradation (HPLC)” value is recorded as “no peptide degradation”. For the same compound, in data set [2], the “degradation of peptide in conditioned culture medium” value is reported as “almost no degradation”. Also, in data set [3], the “peptide concentration in culture medium” value was “decreases quickly”.
